Assay results reported in ChEMBL document CHEMBL1123523, “Oxidation of 5-hydroxytryptamine and 5,7-dihydroxytryptamine. A new oxidation pathway and formation of a novel neurotoxin” (J Med Chem, 1986).

system: Mus musculus; experiment: Compound was tested for neurotoxic property after intracranial administration in mice; assay type: ADME, organism-based; details: in vivo, other

Compound | LD50 [µg]
NCCc1c[nH]c2c1C(=O)C(=O)C=C2O | 20
NCCc1cc(O)c(O)cc1N | 50
CC(N)Cc1cc(O)c(O)cc1N (stereo unspecified) | 45
NCCc1c[nH]c2c(O)cc(O)cc12 | 55
NCCc1cc(O)c(O)cc1O [OXIDOPAMINE] | 80

organism: Mus musculus; experiment: Compound was tested for lowering the norepinephrine levels in mouse brain expressed as percent of control values; assay type: functional; details: not given

Compound | Activity [%]
NCCc1c[nH]c2c1C(=O)C(=O)C=C2O | 87
